Assay results reported in patent US20200339544A1 (JOINT STOCK COMPANY "BIOCAD", priority 2017, published 2020).
Structures can show the parent of a compound that is named as a salt. Where two headings read alike, the source gives them in different places.

Legend:
[1] = test system: HCC827 (lung adenocarcinoma, SM, exon19delE746-A750); experiment: Antiproliferative activity on HCC827 cells (Alamar Blue); type: cell-based; details: Homo sapiens, antiproliferative test
Method in brief: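 HCC827 cells (EGFR exon19del E746-A750), 10×10^3/well, attached 16–18 h, then exposed to compounds for 72 h at 37 °C in RPMI-1640 with 2% FBS, ≤1% DMSO. Viability by Alamar Blue fluorescence (ex 540/em 590 nm) after 3–5 h; IC50 by four-parameter logistic fit.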

[2] = Chemical stability in simulated gastric fluid (SGF); type: physicochemical; details: SGF without enzymes, pH 1,4; 10 μm; 2 hours at 37° C.; substance amount remaining
Method in brief: (§1)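 Compound at 10 μm (diluted from 10 mM DMSO stock) incubated 2 h at 37° C in enzyme-free SGF, pH=1,4, or enzyme-free SIF, pH=6.5. HPLC peak areas before and after incubation give % compound remaining.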

[3] = test system: H1975 (lung adenocarcinoma, DM, L828R/T790M); experiment: Antiproliferative activity on H1975 cells (Alamar Blue); type: cell-based; details: for IC50: Homo sapiens, NCI-H1975, H1975 cells; for SI IC50(A549)/IC50(DM): selectivity index, A549 vs H1975 cells
Method in brief: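 H1975 cells (15*10^3/well) attached 16-18 h in RPMI-1640 with 2% FBS, then exposed to compounds (≤1% DMSO final) for 72 h at 37 °C. Viability by Alamar Blue fluorescence (Ex 540/Em 590 nm) after 3-5 h; IC50 from four-parameter logistic fit.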

WT EGFR (Wild-Type EGFR) = molecular target: T1, WT EGFR (Wild-Type EGFR) (Homo sapiens, UniProt P00533); experiment: Inhibition of WT EGFR kinase activity (ADP-Glo); type: biochemical
T1 construct: purchased SignalChem
T1 sequence (P00533 25-1210): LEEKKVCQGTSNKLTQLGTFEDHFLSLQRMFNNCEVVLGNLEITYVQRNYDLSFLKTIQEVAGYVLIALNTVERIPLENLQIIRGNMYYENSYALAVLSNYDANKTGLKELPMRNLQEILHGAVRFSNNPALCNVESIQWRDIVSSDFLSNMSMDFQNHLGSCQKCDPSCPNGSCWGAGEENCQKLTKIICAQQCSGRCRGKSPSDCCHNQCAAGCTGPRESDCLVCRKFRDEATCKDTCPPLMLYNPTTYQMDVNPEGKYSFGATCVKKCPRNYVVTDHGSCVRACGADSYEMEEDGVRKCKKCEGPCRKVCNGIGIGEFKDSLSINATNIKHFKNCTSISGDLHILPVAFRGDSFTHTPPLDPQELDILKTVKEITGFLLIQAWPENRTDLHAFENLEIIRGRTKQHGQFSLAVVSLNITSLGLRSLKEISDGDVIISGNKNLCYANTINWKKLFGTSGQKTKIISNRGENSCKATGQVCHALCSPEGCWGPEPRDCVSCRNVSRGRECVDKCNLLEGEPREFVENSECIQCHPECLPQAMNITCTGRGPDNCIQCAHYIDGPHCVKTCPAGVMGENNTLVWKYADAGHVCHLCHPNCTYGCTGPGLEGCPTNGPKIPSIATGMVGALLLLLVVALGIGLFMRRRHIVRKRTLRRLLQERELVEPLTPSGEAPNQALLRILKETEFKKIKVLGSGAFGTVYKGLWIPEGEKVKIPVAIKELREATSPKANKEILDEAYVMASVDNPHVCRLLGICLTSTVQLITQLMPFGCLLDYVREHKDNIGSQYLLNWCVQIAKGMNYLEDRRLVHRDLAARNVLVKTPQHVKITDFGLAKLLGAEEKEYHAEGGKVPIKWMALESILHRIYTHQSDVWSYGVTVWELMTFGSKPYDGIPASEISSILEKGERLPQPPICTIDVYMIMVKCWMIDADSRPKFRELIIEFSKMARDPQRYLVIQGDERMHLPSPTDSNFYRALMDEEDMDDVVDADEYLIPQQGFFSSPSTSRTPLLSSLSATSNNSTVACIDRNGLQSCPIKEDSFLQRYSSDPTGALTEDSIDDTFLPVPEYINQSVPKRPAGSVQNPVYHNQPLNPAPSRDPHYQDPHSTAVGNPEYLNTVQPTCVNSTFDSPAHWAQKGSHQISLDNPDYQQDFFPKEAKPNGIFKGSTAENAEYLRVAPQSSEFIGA
Method in brief: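 Recombinant WT or double-mutant EGFR was incubated with a solution of 0.5 mg/mL peptide substrate and 50 μM ATP for 180 minutes at 37° C. Kinase activity was detected by ADP-Glo luminescence. IC50 values came from a four-parameter logistic fit.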

[4] = Chemical stability in simulated intestinal fluid (SIF); type: physicochemical; details: SIF without enzymes, pH 6.5; 10 μm; 2 hours at 37° C.; substance amount remaining
Method in brief: as §1

[5] = test system: A549 (lung adenocarcinoma, WT); experiment: Antiproliferative activity on A549 cells (Alamar Blue); type: cell-based; details: Homo sapiens, antiproliferative test
Method in brief: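 Cells seeded at 5*10^3/well in RPMI-1640 with 2% FBS, attached 16-18 h at 37° C, then exposed to compounds (≤1% DMSO) for 72 h. Alamar Blue added for 3-5 h; fluorescence read at 540/590 nm. IC50 from four-parameter logistic fit.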

[6] = average values obtained in several tests, Table 16, read-out: H1975 (DM) IC50
[7] = antiproliferative test, Table 15, read-out: IC50 H1975 (DM)

SMILES | IC50 [1] [nM] | Stability in SGF, % [2] [%] | IC50 [3, 6] [nM] | IC50 [3, 7] [nM] | SI IC50(A549)/IC50(DM) [3] | IC50 (WT EGFR (Wild-Type EGFR)) [nM] | Stability in SIF, % [4] [%] | IC50 [5] [nM]
C=CC(=O)Nc1cc(Nc2nccc(C(=O)c3ccc(OCCC)cc3)n2)c(OC)cc1N(C)CCN(C)C [EGFR_3365_30, N-(2-((2-(dimethylamino)ethyl)(methyl)amino)-4-methoxy-5-((4-(4-propoxybenzoyl)pyrimidin-2-yl)amino)phenyl)acrylamide] | 2 | 100.0 | 16.4 | 16.4 | 337.72 | 613 | 92.9 | 5540
C=CC(=O)Nc1cc(Nc2nccc(C(=O)c3ccc(OC(C)C)cc3)n2)c(OC)cc1N(C)CCN(C)C [EGFR_3365_31, N-(2-((2-(dimethylamino)ethyl)(methyl)amino)-5-((4-(4-isopropoxybenzoyl)pyrimidin-2-yl)amino)-4-methoxyphenyl) acrylamide] | 8.3 | 100.0 | 7.34 | 7.3 | 1509.19 | 131 | 97.2 | 11100
C=CC(=O)Nc1cc(Nc2cc(C(=O)c3ccc(OCCC)cc3)ccn2)c(OC)cc1N(C)CCN(C)C [EGFR_3365_50, N-(2-((2-(dimethylamino)ethyl)(methyl)amino)-4-methoxy-5-((4-(4-propoxybenzoyl)pyridin-2-yl)amino)phenyl)acrylamide] | 26.9 | 100.0 | 47.5 | 47.5 | 104 | 32 | 98.5 | 4920
C=CC(=O)Nc1cc(Nc2cc(C(=O)c3ccc(OC)cc3)ccn2)c(OC)cc1N(C)CCN(C)C [EGFR_3365_51, N-(2-((2-(dimethylamino)ethyl)(methyl)amino)-4-methoxy-5-((4-(4-methoxybenzoyl)pyridin-2-yl)amino)phenyl)acrylamide] | 8.6 | 100.0 | 33.8 | 33.8 | 340 | 50.8 | 100.0 | 11500
C=CC(=O)Nc1cc(Nc2cc(C(=O)c3ccc(OCC)cc3)ccn2)c(OC)cc1N(C)CCN(C)C [EGFR_3365_52, N-(2-((2-(dimethylamino)ethyl)(methyl)amino)-5-((4-(4-ethoxybenzoyl)pyridin-2-yl)amino)-4-methoxyphenyl) acrylamide] | 22.5 | 100.0 | 66.1 | 66.1 | 164 | 67.9 | 100.0 | 10800
C=CC(=O)Nc1cc(Nc2cc(C(=O)c3ccc(N4CCN(C)CC4)cc3)ccn2)c(OC)cc1N(C)CCN(C)C [EGFR_3365_55, N-(2-((2-(dimethylamino)ethyl)(methyl)amino)-4-methoxy-5-((4-(4-(4-methylpiperazin-1-yl)benzoyl)pyridin-2-yl)amino)phenyl)acrylamide] | 20.1 | 98.8 | 211 | 211 | 55 | 76.6 | 97.2 | 11600
C=CC(=O)Nc1cc(Nc2cc(C(=O)c3ccc(N4CCCC4)cc3)ccn2)c(OC)cc1N(C)CCN(C)C [EGFR_3365_56, N-(2-((2-(dimethylamino)ethyl)(methyl)amino)-4-methoxy-5-((4-(4-(pyrrolidin-1-yl)benzoyl)pyridin-2-yl)amino)phenyl)acrylamide] | 29.9 | 99.8 | 29.2 | 29.2 | 156 | 121 | 96.4 | 4540
C=CC(=O)Nc1cc(Nc2nccc(C(=O)c3ccc(N4CCC4)cc3)n2)c(OC)cc1N(C)CCN(C)C [EGFR_3365_58, N-(5-((4-(4-(azetidin-1-yl)benzoyl)pyrimidin-2-yl)amino)-2-((2-(dimethylamino)ethyl)(methyl)amino)-4-methoxyphenyl)acrylamide] | 6.23 | 89.9 | 8.1 | 10.5 | >1235 | 39.7 | 100.0 | > 10000
C=CC(=O)Nc1cc(Nc2nccc(C(=O)c3ccc(N4CC(OC)C4)cc3)n2)c(OC)cc1N(C)CCN(C)C [EGFR_3365_61, N-(2-((2-(dimethylamino)ethyl)(methyl)amino)-4-methoxy-5-((4-(4-(3-methoxyazetidin-1-yl)benzoyl)pyrimidin-2-yl)amino)phenyl)acrylamide] | 5.77 | 100.0 | 8.1 | 8.12 | 2884 | 53.1 | 98.8 | 23400
C=CC(=O)Nc1cc(Nc2nccc(C(=O)c3ccc(N4CCN(C)CC4)cc3)n2)c(OC)cc1N(C)CCN(C)C [EGFR_3365_62, N-(2-((2-(dimethylamino)ethyl)(methyl)amino)-4-methoxy-5-((4-(4-(4-methylpiperazin-1-yl)benzoyl)pyrimidin-2-yl)amino)phenyl)acrylamide formate] | 12.1 | 100.0 | 22.8 | 60.8 | 539 | 127 | 100.0 | 12300
C=CC(=O)Nc1cc(Nc2nccc(C(=O)c3ccc(N4CCCC4)cc3)n2)c(OC)cc1N(C)CCN(C)C [EGFR_3365_63, N-(2-((2-(dimethylamino)ethyl)(methyl)amino)-4-methoxy-5-((4-(4-(pyrrolidin-1-yl)benzoyl)pyrimidin-2-yl)amino)phenyl)acrylamide] | 4.27 | 100.0 | 2 | 5.79 | 5383 | 22.9 | 100.0 | 10800
C=CC(=O)Nc1cc(Nc2nccc(C(=O)c3ccc(OCCCC)cc3)n2)c(OC)cc1N(C)CCN(C)C [EGFR_3365_66, N-(5-((4-(4-butoxybenzoyl)pyrimidin-2-yl)amino)-2-((2-(dimethylamino)ethyl)(methyl)amino)-4-methoxyphenyl)acrylamide] | 12.8 | 100.0 | 34.7 | 34.7 | 134 | 46.8 | 96.5 | 4640
C=CC(=O)Nc1cc(Nc2nccc(C(=O)c3ccc(OCC)cc3OCC)n2)c(OC)cc1N(C)CCN(C)C [EGFR_3365_68, N-(5-((4-(2,4-diethoxybenzoyl)pyrimidin-2-yl)amino)-2-((2-(dimethylamino)ethyl) (methyl)amino)-4-methoxyphenyl)acrylamide] | 19.1 | 100.0 | 34.6 | 34.6 | 235 | 93.9 | 98.2 | 8140
C=CC(=O)Nc1cc(Nc2nccc(C(=O)c3ccc(OC)cc3OC)n2)c(OC)cc1N(C)CCN(C)C [EGFR_3365_69, N-(5-((4-(2,4-dimethoxybenzoyl)pyrimidin-2-yl)amino)-2-((2-(dimethylamino)ethyl)(methyl)amino)-4-methoxyphenyl)acrylamide] | 2.46 | 100.0 | 7.9 | 7.93 | >1261 | 23.6 | 100.0 | > 10000
C=CC(=O)Nc1cc(Nc2nccc(C(=O)c3ccc(OCCC)cc3OCCC)n2)c(OC)cc1N(C)CCN(C)C [EGFR_3365_70, N-(2-((2-(dimethylamino)ethyl)(methyl)amino)-5-((4-(2,4-dipropoxybenzoyl)pyrimidin-2-yl)amino)-4-methoxyphenyl)acrylamide] | 36.8 | 100.0 | 203 | 203 | 22 | 250 | 98.6 | 4390
